Here are results for three compounds from US7482341B2, “Pyridines” (Hoffmann-La Roche Inc., priority 2004, dated 2009).

The target of experiment [1] is T1, 11beta-HSD1 (Homo sapiens, UniProt P28845). In words: Microsome assay (cortisone to cortisol, ELISA). Conditions: microsomes from HEK293 cells transiently expressing human 11beta-HSD1; 60 min, 37° C.; cortisol production 50% reduced; read-out: h 11-beta-HSD 1 IC50. The arrangement: made in house; host or cells: HEK293 cells (ATCC CRL-1573), transient transfection with pcDNA3 construct; microsomal fraction. Format: biochemical. Here is the method: Transient Expression and Partial Purification:
The cDNA encoding the human 11beta-HSD1 protein was cloned into the expression vector pcDNA3 ([…]). This construct (for details see Alex Odermatt et al.; J Biol Chem.,1999, Vol. 274, Issue 40, 28762-28770) was used to transiently express the protein in HEK293 cells (ATCC number: CRL-1573, described in Graham, F. L., Smiley, J., Russell, W. C., Nairn, R.; (1977)) using lipofectamine. 48h after transfection cells were washed twice with ice-cold PBS (Phsophate buffered Saline). To 1 volume of cell suspension in PBS 2 volumes of ice-cold lysis buffer (50 mM Tris; pH7.5; 1 mM EDTA; 100 mM NaCl) were added. The cells were lysed by Potter-homogenization (20 strokes). The resulting homogenate was sonicated wit a tip sonicator (10% output; 2×30 sec.) and cleared by a low speed centrifugation (10 min×9000 g; 4° C.). […]
Microsomes isolated from HEK293 cells transiently expressing human 11beta-HSD1 (for details see above) were incubated in assay buffer (100 mM NaCl; 1 mM EDTA; 1 mM EGTA; 1 mM MgCl; 250 mM Sucrose; 20 mM Tris pH 7.4; Cortisone 50-200 nM and NADPH 1 mM) together with different concentrations of test substances. […] The amount of Cortisol produced in this assay was determined using a commercially available, ELISA-based Cortisol-detection kit (Distributed by Assay Design, Inc.). […]

Experiment [2] concerns the target T1, 11beta-HSD1. Set-up: host or cells: human subjects (in vivo). Conditions: humans, treatment with carbenoxolone; cited from earlier work.

T1 sequence (P28845 whole entry): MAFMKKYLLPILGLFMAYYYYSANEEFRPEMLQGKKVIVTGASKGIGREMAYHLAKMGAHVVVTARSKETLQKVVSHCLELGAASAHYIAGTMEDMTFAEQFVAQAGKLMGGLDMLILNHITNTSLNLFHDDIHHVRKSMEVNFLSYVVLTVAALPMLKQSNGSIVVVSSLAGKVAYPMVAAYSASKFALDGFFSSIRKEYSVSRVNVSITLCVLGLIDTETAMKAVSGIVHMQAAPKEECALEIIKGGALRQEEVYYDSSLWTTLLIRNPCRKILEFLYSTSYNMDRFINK

For `O=S(=O)(Nc1cccc(COCc2ccc(F)cc2)n1)c1ccc(F)cc1` [Example 105, 4-Fluoro-N-[6-(4-fluoro-benzyloxymethyl)-pyridin-2-yl]-benzenesulfonamide], the IC50 in experiment [1] turned out to be 16 nM.

In the case of `Cc1c(Cl)cccc1S(=O)(=O)Nc1ccc(Oc2ccc(F)cc2)cn1` [Example 186, 3-Chloro-N-[5-(4-fluoro-phenoxy)-pyridin-2-yl]-2-methyl-benzenesulfonamide benzenesulfonamide], the IC50 in experiment [1] worked out at 5 nM. Take `CC1(C)[C@@H](OC(=O)CCC(=O)O)CC[C@]2(C)[C@H]3C(=O)C=C4[C@@H]5C[C@@](C)(C(=O)O)CC[C@]5(C)CC[C@@]4(C)[C@]3(C)CC[C@@H]12` [carbenoxolone]: the insulin sensitivity entry in experiment [2] is “increase in insulin sensitivity”.
